In general, Cmax refers to the peak of the concentration-time curve.

Consider one molecule from ChEMBL document CHEMBL3585280, “2-Aminopyridines with a Truncated Side Chain To Improve Human Neuronal Nitric Oxide Synthase Inhibitory Potency and Selectivity” (J Med Chem, 2015).

Format in all cases: ADME, organism-based
The nature of series [1]: Cmax in BALB/c mouse plasma at 2 mg/kg, iv. More on the design: dose 2 mg/kg, route intravenous.
Series [2] in a line: Cmax in BALB/c mouse brain at 2 mg/kg, iv. Also noted: dose 2 mg/kg, route intravenous.
The test system of series [3] is Brain. In words: AUClast in BALB/c mouse brain at 2 mg/kg, iv. The conditions noted are these: in vivo.
The subject of series [4] is Brain. The experiment in a line: AUClast in BALB/c mouse brain at 10 mg/kg, po. The conditions noted are these: in vivo.

For `CNCCN(C)c1cc(C#N)cc(CCc2cc(C)cc(N)n2)c1`, the figures for the peak concentration (Cmax) in series [1] and in series [2] were 472 ng/mL and 100 ng/g, respectively. The AUClast with Brain [3] was 789.07 ng·h/g; in the series with Brain [4] it was 673.67 ng·h/g.
